This assay concerns the target T1, Human MC1R (Homo sapiens, UniProt Q01726).
T1 construct: endogenous in cells; host or cells: human melanoma cell line HBL
Kind of assay: MCR agonist measurement (cAMP measurement), human MC1R agonist activity in human melanoma cell line HBL. The class given is cell-based. Conditions: HBL cells; for EC50: 37° C. for 30 minutes, intracellular cAMP by fluorescence method; for Human MC1R IA %: Intrinsic Activity, vehicle cAMP = 0%, αMSH at 10^-6 M = 100%.

T1 sequence (Q01726 whole entry): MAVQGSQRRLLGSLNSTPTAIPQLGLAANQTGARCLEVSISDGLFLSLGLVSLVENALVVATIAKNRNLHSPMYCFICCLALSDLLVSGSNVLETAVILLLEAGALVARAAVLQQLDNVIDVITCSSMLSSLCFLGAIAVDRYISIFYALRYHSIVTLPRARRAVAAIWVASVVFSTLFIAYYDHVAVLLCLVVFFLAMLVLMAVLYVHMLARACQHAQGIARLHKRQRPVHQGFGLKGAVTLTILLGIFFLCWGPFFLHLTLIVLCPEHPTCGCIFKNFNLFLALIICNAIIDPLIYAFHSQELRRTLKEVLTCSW

The term EC50 denotes the midpoint of the concentration-response curve. Read a high EC50 as lower potency in that assay. `COC[C@@H]1C[C@@H](c2ccc(C(F)(F)F)cc2N(C)CCCC(=O)O)CN1C(=O)[C@]1(F)CN([C@H]2CC[C@H](OC)CC2)C[C@H]1c1ccc(OC)cc1` [Example 115]: the EC50 is 11 nM and the “Human MC1R IA %” value is listed as 85%.

With `COc1ccc([C@@H]2CN(C(C)(C)C)C[C@@]2(F)C(=O)N2CC[C@H](c3ccc(C(F)(F)F)cc3N3CCC(C(=O)O)CC3)C2)cc1.Cl.Cl` [Example 286b, 1-{2-[(3R)-1-{[(3R,4R)-1-tert-butyl-3-fluoro-4-(4-methoxyphenyl)pyrrolidin-3-yl]carbonyl}pyrrolidin-3-yl]-5-(trifluoromethyl)phenyl}piperidine-4-carboxylic acid dihydrochloride], the EC50 turned out to be 189 nM and the “Human MC1R IA %” value was determined as 71%.

Consider `COC[C@@H]1C[C@@H](c2ccc(C(F)(F)F)cc2N2CCC(C(=O)O)CC2)CN1C(=O)[C@]1(F)CN([C@H]2CC[C@H](C#N)CC2)C[C@H]1c1ccc(OC)cc1` [Example 143], for which the EC50 turned out to be 0.76 nM and the “Human MC1R IA %” value is reported as 96%.

Consider `COc1ccc([C@@H]2CN(C(C)(C)C)C[C@@]2(F)C(=O)N2CCC(c3ccc(C(F)(F)F)cc3OCCCC(=O)NS(=O)(=O)N(C)C)CC2)cc1.Cl` [Example 272, 4-[2-(1-{[(3R,4R)-1-tert-butyl-3-fluoro-4-(4-methoxyphenyl)pyrrolidin-3-yl]carbonyl}piperidin-4-yl)-5-(trifluoromethyl)phenoxy]-N-(dimethylsulfamoyl)butanamide hydrochloride], for which the concentration for a half-maximal effect (EC50) stood at 18 nM and the “Human MC1R IA %” value is on record as 91%.

`COC[C@H]1CN(C(=O)[C@]2(F)CN(CC(=O)N3CCCCC3)C[C@H]2c2ccc(OC)cc2)C[C@@H]1c1ccc(C(F)(F)F)cc1N1CCC(C(=O)O)CC1` [Example 306]: the EC50 was determined as 6.8 nM and the “Human MC1R IA %” value was found to be 96%.

On to `COc1ccc([C@@H]2CN(C(C)(C)CO)C[C@@]2(F)C(=O)N2CCC(c3ccc(C(F)(F)F)cc3N3CCC(C(=O)O)CC3)CC2)cc1` [Example 320], for which the EC50 is 30 nM and the “Human MC1R IA %” value was found to be 79%.

With `CCO[C@H]1CC[C@H](N2C[C@@H](c3ccc(OC)cc3)[C@](OC)(C(=O)N3C[C@H](COC)[C@@H](c4ccc(C(F)(F)F)cc4N4CCC(C(=O)O)CC4)C3)C2)CC1` [Example 140], the EC50 came out at 4.1 nM and the “Human MC1R IA %” value came to 98%.

For the compound `COc1ccc([C@@H]2CN(C(C)(C)C)C[C@@]2(F)C(=O)N2CC(c3ccc(C(F)(F)F)cc3N3CCC(C(=O)O)CC3)C2)cc1` [Example 84], a half-maximal response (EC50) required 40 nM and the “Human MC1R IA %” value is on record as 119%.

In the case of `CCc1ccc([C@@H]2CN(C(C)(C)C)C[C@@]2(F)C(=O)N2CCC(c3ccc(C(F)(F)F)cc3N3CCC(C(=O)O)CC3)CC2)cc1` [Example 91], the 50% effective concentration (EC50) came to 44 nM and the “Human MC1R IA %” value was determined as 74%.

With `COc1ccc([C@@H]2CN(C(C)(C)C)C[C@@]2(F)C(=O)N2CCC(c3ccc(C(F)(F)F)cc3N3CCC(C(=O)N4CCCC4)CC3)CC2)cc1` [Example 235], the EC50 was 79 nM and the “Human MC1R IA %” value is 124%.

Consider `COc1ccc([C@@H]2CN(C3CCN(C(CF)CF)CC3)C[C@@]2(F)C(=O)N2CCC(c3ccc(C(F)(F)F)cc3N3CCC(C(=O)O)CC3)CC2)cc1` [Example 193], for which the EC50 came to 17 nM and the “Human MC1R IA %” value was 103%.

Turning to `COc1ccc([C@@H]2CN(C(C)(C)C)C[C@@]2(F)C(=O)N2CC[C@@H](c3ccc(C(F)(F)F)cc3N3CCC(C(=O)O)CC3)C2)cc1.Cl.Cl` [Example 286a, 1-{2-[(3S)-1-{[(3R,4R)-1-tert-butyl-3-fluoro-4-(4-methoxyphenyl)pyrrolidin-3-yl]carbonyl}pyrrolidin-3-yl]-5-(trifluoromethyl)phenyl}piperidine-4-carboxylic acid dihydrochloride], a half-maximal effect (EC50) was put at 4.4 nM and the “Human MC1R IA %” value was determined as 105%.

With `COc1ccc([C@@H]2CN(CCCS(=O)(=O)N3CCCC3)C[C@@]2(F)C(=O)N2CCC(c3ccc(C(F)(F)F)cc3N3CCC(C(=O)O)CC3)CC2)cc1` [Example 45], the EC50 was found to be 23 nM and the “Human MC1R IA %” value turned out to be 105%.

The values are drawn from patent US9981960B2, “Pyrrolidine compound and application as melanocortin receptor agonist” (MITSUBISHI TANABE PHARMA CORPORATION, priority 2014, dated 2018).
